Results: US7947253B2, “Perturbed membrane-binding compounds and methods of using the same” (Aposense Ltd., priority 2004, dated 2011)

How the values were obtained:
[1] = system: brain and spinal cord white matter in EAE; test: Autoradiography imaging of experimental autoimmune encephalomyelitis (EAE); format: in vivo, C3H.SW/C57/bl female mice; details: FIG. 12
[2] = system: colon carcinoma tumor vs other organs; test: Biodistribution in colon carcinoma tumor bearing mice; format: in vivo, Balb/c male mice; details: doxorubicin treated mice, 4 h after injection, table of FIG. 7
Procedure: Colon carcinoma model was established in the abdomen of Balb/c male mice, as described in previous example, and ^3H-NST200 (10 μCi) was injected to animals treated with doxorubicin. Four hours later, the animals were sacrificed and various organs/tissues were collected and processed, to determine the accumulation of ^3H-NST200 within them. The uptake in each organ was expressed as % of the injected dose (ID), and the ratio between the uptake in the tumor and other organs was calculated, as shown in the table attached hereto as FIG. 7.

colon carcinoma tumors [3] = test: Uptake into treated colon carcinoma tumors compared with tumor volume; format: in vivo, Balb/c male mice
Procedure: Colon carcinoma model was established in the abdomen of Balb/c male mice, as described in Example No. 10. At day 12-14 when tumor size was 6-8 mm in diameter, mice were injected intravenously with doxorubicin. A total of 2 doses of doxorubicin were given, separated by 3 days interval (each dose was 20 mg/Kg).
Two days after the second doxorubicin injection, mice were injected i.v. with 10 μCi of ^3H-NST200 in a volume of 0.2 ml saline. Four hours following ^3H-NST200 injection, mice were sacrificed by pental overdosing. Tumors were collected in ependorff tubes, weighted and frozen in −20° C.
Tumor lysis was performed using SOLVABLE™ reagent (GNE9100, Packard Bioscience) in a ratio of 1 ml reagent per 150 mg of tumor tissue at 60° C. in 20 ml scintillation glass vials. Following 2-4 hours, 1 ml from each tissue extract was transferred to a glass scintillation vial. To reduce color quenching problems, samples were treated with 0.4 ml of 30% H2O2 in the presence of 0.066M EDTA. […] The vials were incubated for 1 hr at RT, and than analyzed in a β-counter (TRI-CARB 2100TR, liquid scintillation analyzer, Packard Bioscience). Values of percents of injected dose (% ID/g tissue) were calculated for each sample. […] The uptake values of NST200 after each dose were correlated with tumor volume, which were calculated by the formula (assuming spherical tumors) V=πD^3/6, where D is the average tumor diameter.

[4] = system: brain regions of apoptotic/necrotic cell death; test: Autoradiography of apoptotic damage following middle cerebral artery occlusion in mice; format: in vivo, Balb/C mice
Procedure: p-MCA was induced through a subtemporal approach in Balb/C mice with an outcome of a pronounced ischemic damage. Twenty-two hours after p-MCA, the animal's neurological score was assessed (from 0-no clinical signs to 3-hemiplegia, circling and catatonia) and radio-labeled NST200 (80 μCi/animal) was intravenously injected for successive 2 h before sacrificing the animals. 10 μm frozen sections were prepared, air-dried and exposed to a tritium sensitive film (Hyperfilm-3h, RPN535B Amersharn-Pharmacia, Eu). The film was exposed for a duration of 7 weeks, developed (GBX Developer & Fixer, Kodak, USA) and analyzed by densitometry measurement. Measurement of ^3H-DDC densities in optical density/mm^2, in the ischemic core vs. the contralateral hemisphere signal was assessed by TINA software. Signals were translated according to a Microscale autoradiography standards (RPN510 Amersham-Pharmacia, Eu) and expressed in nCi/mg units.

colon carcinoma tumors [5] = test: Autoradiography of response to chemotherapy in a mouse model of colon carcinoma; format: in vivo, Balb/c male mice; details: 4 h after i.v. injection
Procedure: Colon carcinoma model was established in the abdomen of Balb/c male mice. At day 12-14 when tumor size was […] in diameter, the uptake of NST200 into tumors was measured following treatment of colon carcinoma tumors with i.v. injection of two doses of doxorubicin (20 mg/kg, 72 hours apart). Fourty-eight hours after the chemotherapy, both the control non-treated and the chemotherapy-treated animals were injected intravenously with and radio-labeled NST200 (80 μCi/animal) Four hours later, the animals were sacrificed. 10 μm frozen sections were prepared, air-dried and exposed to a tritium sensitive film. The film was exposed for a duration of 7 weeks, developed and analyzed by densitometny measurement. Measurement of ^3H-DDC densities in optical density/mm^2, […] was assessed by TINA software. Signals were translated according to a Microscale autoradiography standards and expressed in nCi/mg units.

[6] = system: Jurkat cells undergoing apoptosis induced by CD95; test: Binding of tritium-labeled compounds to cultured Jurkat cells undergoing apoptosis induced by CD95; format: cell-based, human
Procedure: Cultured Jurkat cells (human adult T cell leukemia cells) were grown in suspension in RPMI medium (Beit-Haemek, Israel), supplemented with 10% fetal calf serum (FCS), 2 mM of L-glutamide, 1 mM of sodium pyruvate, 1 mM HEPES and antibiotics (100 units/ml penicilin; 100 μg/ml streptomycin and 12.5 units/ml of nystatin). Prior to induction of apoptosis, medium was replaced with HBS buffer (10 mM HEPES; 140 mM NaCl, 1 mM CaCl). Apoptosis was then triggered by treatment with CD95 (0.1 ug/10^7 cells/ml). As a result, a marked percentage of the cells became apoptotic. Non-treated cells served as control. Both control cells and apoptotic cells were then incubated for 40 minutes at room temperature followed by 30 minutes on ice with (2 μCi/10^7 cells/0.5 ml) tritium-labeled NST 200 and NST 205.
After washing the cells twice, 1 ml of SOLVABLE™ reagent (GNE9100, Packard Biosciences) was added to the pellet. Following one hour of incubation at 60° C., the extracts were transferred into glass scintillation vials and 10 ml of scintillation liquid (Ultima gold 6013329, Packard Biosciences) was added to each vial. The radioactivity was counted after 1 hour of cooling to room temperature and dark adaptation. The radioactive values were calculated and presented in percents of total added radiolabeled NST 200 and NST 205

[7] = system: Murine colon carcinoma cells (CT-26) tumors; test: Uptake into colon carcinoma tumors: effect of chemotherapy (scintillation counting); format: in vivo, Balb/C mice
Procedure: Murine colon carcinoma cells (CT-26) (ATCC CRL-2638) were maintained in RPMI (Gibco, UK), 2 mM of L-glutamine; 100 units/ml of penicillin; 100 μg/ml of streptomycine; 12.5 units/ml nystatin; and 10% heated inactivation FCS. Studies were carried out in adult male Balb/C mice 8-10 weeks old (weighting 20-25gr).
Cells were trypsinized, washed twice with HBS (140 mM NaCl; […], PH 7.4) and than centrifuged (5 min, 1000 rpm, 4° C.) and concentrated into 2×10^6 cells/ml in a mixture of (2%) methyl cellulose and saline (1:3). A volume of 0.2 ml of the above solution (containing 4×10^5 cells/dose) was injected subcutaneously into the mice abdomen in both sides while mice were anaesthetized. Anaesthetic stock solution was prepared from 0.85 ml Ketamine (100 mg/ml)+0.15 ml Xilazine (2%) diluted 1:10. 0.1 ml of diluted solution was injected (i.p.) per 10 gr body weight.
Mice were examined daily for palpable tumor formation. 7-10 days after tumor injection small tumors were visible.
Uptake of ^3H-NST200 into tumors was measured following treatment of colon carcinoma tumors with i.v. injection of two doses of doxorubicin (20 mg/kg, 72 hours apart). 48 hours after the second dose, the mice were intravenously injected with ^3H-NST200 (10 μCi/animal). Four hours later, tumors were collected, weighed and the tissue was processed: tumor lysis was performed using SOLVABLE™ reagent (GNE9100, Packard Bioscience) in a ratio of one ml reagent per 150 mg of tumor tissue at 60° C. in 20 ml scintillation glass vials. Following 2-4 hours, one ml from each tissue extract was transferred to a glass scintillation vial. To reduce color quenching problems, samples were treated with 0.4 ml of 30% H2O2 in the presence of 0.066M EDTA. […] The vials were incubated for 1 hr at RT, and than analyzed in a β-counter (TRI-CARB 2100TR, liquid scintillation analyzer, Packard Bioscience). All samples were measured in triplicates Values of percents of injected dose (% ID/g tissue) were calculated for each sample.

[8] = system: HeLa S3 cells undergoing apoptosis; test: Fluorescent microscopy of binding to cultured HeLa cells undergoing apoptosis; format: cell-based; details: aged HeLa culture, fluorescence, FIG. 3
Procedure: HeLa S3 cells (ATCC CCL-2.2) were grown in Dulbecco's modified Eagle's medium (DMEM), supplemented with 2 mM of L-glutamine; 100 units/ml of penicillin; 100 μg/ml of streptomycin; 12.5 units/ml of nystatin and 10% of fetal calf serum (FCS). Cells were seeded at a density of 5×10^6 cells/plate, on a […] culture plates, in a volume of 10 ml, and were allowed to age by incubating the culture for 96 hours without exchange of the growth-medium. As a result, a marked percentage of the cells became apoptotic. Cells were harvested using a cell scraper, separated to single cells by passage through a syringe with a 18 G needle, and re-suspended at a density of 10^6 cells/ml in PBS buffer at pH=7.4. As was shown before NST 203 including a dansylamide group which enables the visualization of the fluorescence of a single cell.

[9] = system: injured regions within the outer medulla of the kidney; test: Autoradiography in a rat model of radiocontrast-induced acute distal tubular necrosis; format: in vivo, rats; details: 24 h after insult, 1 h after i.v. injection, FIG. 11
Procedure: Nephropathy with selective medullary hypoxic tubular damage was induced by the combined administration of indomethacin (Sigma Chemical Co.), 10 mg/kg, i.v., N^ωnitro-L-arginine methyl ester (L-NAME, Sigma Chemical Co.), 10 mg/kg, i.v., and radiocontrast agent sodium-iothalamate 80% (Angio-Conray, Mallinckrodt Inc), 6 mL/kg, i.a. Additional rats injected with vehicles served as control. Twenty-four hours after insult, animals, both control and experimental were intravenously injected with 100 μCi of ^3H-NST205 and one hour later kidneys were excised and frozen in liquid nitrogen.

[10] = system: kidney regions of apoptotic/necrotic cell death; test: Autoradiography of rat renal ischemia-reperfusion; format: in vivo, rats

## CCCCC(C)(C(=O)O)C(=O)O [NST200]
[1]; coronal brain sections, 1 h after i.v. injection
  radio-ligand accumulation in brain vs control non-immunized mouse: excess of radio-ligand accumulation in the whole brain
[1]; longitudinal spinal cord section
  accumulation at the spinal cord level vs control untreated animal: impressive accumulation
[2]
  ratio of uptake in the tumor vs. all organs: > 1
Colon carcinoma tumors [3]; two days after second dose, 4 h after i.v. injection, vs control non-treated tumors
  increase in uptake in tumors after 2 doses of doxorubicin: 18.5 fold
[4]; 22 h after p-MCA, i.v., 2 h, FIG. 9
  targeting of injury within regions of apoptotic/necrotic cell death (autoradiography): specificity of targeting the injury
[4]; tritium-labeled compound
  uptake in damaged brain hemisphere compared to the contralateral non-damaged hemisphere: markedly higher levels of uptake
Colon carcinoma tumors [5]; 48 h after two doses of doxorubicin, FIGS. 5B and C
  uptake in tumors upon induction of cell death via chemotherapy (autoradiography): dramatic increase
Colon carcinoma tumors [5]; control non-treated mice, FIG. 5A
  uptake in non-treated tumors (autoradiography): no uptake
[6]; tritium-labeled compound, CD95-induced apoptosis, FIG. 2A
  uptake in apoptotic cells compared to the non-apoptotic cells: over 8 fold
[7]; doxorubicin treated tumors, 48 hr after second dose, 4 h after i.v. injection
  mean value of uptake in the treated group: 1.28 % ID/gr
[7]; doxorubicin treated vs non treated tumors
  mean uptake of treated group relative to mean value of the control group: 12.1 fold
[7]; some chemotherapy-treated tumors
  increase in uptake in some treated tumors as compared with the control group: 40-50 fold

## CCCCNS(=O)(=O)c1cccc2c(N(C)C)cccc12 [BDA, n-butyl-dansylamide]
[8]
  selectivity of binding to apoptotic vs non-apoptotic cells: did not manifest this selectivity

## CCCCC(CCCF)(C(=O)O)C(=O)O [NST205, 2-butyl-2(3-fluoropropyl)-malonic acid]
[9]
  homing in kidney (autoradiography): primarily restricted to injured regions within the outer medulla
[10]; 45 minutes ischemia, 24 hours reperfusion, 1 h after i.v. injection, FIG. 10
  targeting of injury within regions of apoptotic/necrotic cell death in ischemic kidney (autoradiography): specificity of targeting the injury
[10]; contralateral untreated kidney of same animal
  uptake into contralateral kidney: no ^3H-NST205 uptake into contralateral kidney
[6]; CD95, plus ZVAD, FIG. 2B
  effect of adding caspase inhibitor ZVAD on the higher uptake in apoptotic cells: completely reversed
[6]; tritium-labeled compound, CD95-induced apoptosis, FIG. 2B
  uptake in apoptotic cells in comparison to the non apoptotic cells: higher uptake

## COc1cccc2c1C(=O)c1c(O)c3c(c(O)c1C2=O)C[C@@](O)(C(=O)CO)C[C@@H]3O[C@H]1C[C@H](N)[C@H](O)[C@H](C)O1 [doxorubicin, reference compound]
Colon carcinoma tumors [3]; 2 doses of 20 mg/Kg i.v., 5 days, controls collected 5 days earlier, non-significant
  increase in tumor volume as compared to control non-treated tumors: 50%
